What was measured:
human bronchiols [1] = test: Test Procedure A: remaining contraction of human bronchus preparation on LTD4 challenge after 1 h pre-treatment with test item; format: cell-based; conditions: 10 nM Leukotriene D4; for % RC 1 μM: test item 1 μM pre-treatment; for % RC 10 μm: test item 10 μm, 1 h pre-treatment
Protocol: (§1) The usefulness of the compounds, as defined in the embodiments herein, in treating, revoking, mitigating, alleviating and/or preventing a condition of the respiratory apparatus characterized by bronchoconstriction, were evaluated in a complex and relevant in vitro model, which is described in US 2006-0040254 A1 and Skogvall, S., Berglund, M., Dalence-Guzmán, M. F., Svensson, K., Jönsson, P., Persson, C. G. A and Sterner, O., Pulmonary Pharmacology and Therapeutics, vol 20:3, 2007, p. 273-280. All references disclosed herein are hereby incorporated in their entirety by reference.
(§2) Lung tissue was obtained from patients undergoing lobectomia or pulmectomia due to lung carcinoma. The tissue was placed in a dissection chamber continuously perfused with 10 ml min^−1 of a physiological saline solution (PSS) at room temperature. An airway was identified in the cut part of the lobe, and a bronchus of 10-20 mm length, and 1-2 mm diameter was obtained. The bronchus was cut into rings of a width of about 2-3 mm. Each bronchial ring was cleaved to obtain an about rectangular oblong preparation free from cartilage, one end of which was tied to a small steel hook connected to a force transducer, while the other end of the preparation was attached to a fixed hook. This is followed by a period of adjustment, as described below. The preparation was mounted in an atmosphere containing 12% of oxygen and 6% of CO2.
(§3) The experimental assay system consists of 8 chambers, each with a volume of 6 ml, and is continuously perfused with solutions at a rate of 3 ml/min at 37° C. The chambers are equipped with force transducers (model AME 801, SensoNor A/S, Horton, Norway) allowing the individual registration of parallel preparations. The force transducers are connected to micrometer screws for stretching of tissue preparations to the desired tone. Recordings from the experiments are sampled and analysed using software from ADInstrumets. The substances to be tested and contractile agent are injected upstream of the preparation(s).
(§4) Materials. PPS (physiological saline solution, in mM): NaCl, 117; KCl, 4.87; MgSO4, 0.60; NaHCO3, 25.0; CaCl2, 1.60; glucose, 5.23. The solution is saturated with a mixture of 94% oxygen and 6% carbon dioxide, giving a pH of 7.40±0.05 in the experimental chamber. All substances are prepared as stock solution dissolved in the vehicles ethanol or DMSO. Leukotriene D4 (LTD4; Cayman Ltd.): 10 μl of a 100 μM ethanol stock solution. Substance to be tested: 10-100 μl of a 0.01-0.1 M DMSO stock solution. Solution for establishing the passive tension level: calcium-free PSS+2 mM EGTA. To exclude effects by the test substance vehicle, DMSO was added during the entire experiment except during the presence of test substance.
After mounting as described above the preparation is allowed to adjust with a low passive tone in the experimental chamber. The composition of the gas is changed to 94% (v/v) of oxygen. After a short adjustment period, PSS with 10 nM LTD4 is added to the experimental chamber upstream of the preparation (A). The preparation is stretched repeatedly (B) until it exerts a contraction force of around 150 mg. When the contraction has levelled off, LTD4-free solution is administered for 1 hour (C), resulting in a relaxation. A second injection of 10 nM LTD4 (D) makes the preparation return to the tensioned state. At the peak tension leukotriene-free solution is again administered (E). After a third injection of 10 nM LTD4 (F) the preparation returns to the tensioned state. […] After 1 h exposure to the test item, 10 nM LTD4 is added, resulting in a contraction (H). If the test item is a bronkorelaxant, a substantially weaker contraction is now observed (H) in comparison with the control LTD4 contraction (F). To obtain a measure of the test substance's bronchorelaxing effect the test and control forces registered in the experiment are compared. […]

human bronchiols [2] = test: Test Procedure B: remaining contraction of LTD4-contracted human bronchus preparation under sequential test item concentrations; format: cell-based; conditions: for % RC 0.1 μM: test item 0.1 μM for 1 h in 10 nM LTD4 PSS; for % RC 1 μM: test item 1 μM for 1 h in 10 nM LTD4 PSS; for % RC 1 μM / % RC 10 μM: sequential; for % RC 10 μM: test item 10 μM for 1 h in 10 nM LTD4 PSS
Protocol: as §1, §2, §3, §4
After mounting as described above the preparation is allowed to adjust with a low passive tone in the experimental chamber. The composition of the gas is changed to 94% (v/v) of oxygen. After a short adjustment period, PSS with 10 nM LTD4 is added to the experimental chamber upstream of the preparation (A). The preparation is stretched repeatedly (B) until it exerts a contraction force of around 150 mg. The preparation is kept at level contraction, plateau, with 10 nM LTD4 for 30 min (C). The preparation is then treated with 0.1 μM of the test item in 10 nM LTD4 PSS for 1 h. This is followed by the sequential treatment with 1 μM of the test item in 10 nM LTD4 PSS for 1 h (E) and finally 10 uM of the test item in 10 nM LTD4 PSS for 1 h (F). The experiment is concluded by adding calcium-free solution with addition of 2 mM EGTA for 20 min to establish the passive tension level base line (G).
The result, bronchorelaxing efficiency, is calculated as follows: by comparing and obtaining the ratio between the tensioned states (relative to base line) at the different concentrations, the bronchorelaxing efficiency of the test item is determined. The results are expressed as % remaining contraction (RC). […]

Compound	% RC 1 μM (human bronchiols [1])	% RC 10 μm (human bronchiols [1])	% RC 0.1 μM (human bronchiols [2])	% RC 1 μM (human bronchiols [2])	% RC 10 μM (human bronchiols [2])
Cc1nc2ncccc2cc1C(=O)NCc1ccc(C(F)(F)F)cc1 [Example 2, 2-Methyl-N-(4-(trifluoromethyl)benzyl)-1,8-naphthyridine-3-carboxamide]	77%	23%	–	–	–
Cc1nc2ncccc2cc1C(=O)NCc1csc(-c2ccccc2)n1 [Example 4, 2-Methyl-N-((2-phenylthiazol-4-yl)methyl)-1,8-naphthyridine-3-carboxamide]	–	–	85%	39%	4%
Cc1nc2ncccc2cc1C(=O)NCc1cccc(C(F)(F)F)c1 [Example 14, 2-Methyl-N-(3-(trifluoromethyl)benzyl)-1,8-naphthyridine-3-carboxamide]	76%	15%	–	–	–
Cc1nc2ncccc2cc1C(=O)NCc1ccc(Cl)c(C(F)(F)F)c1 [Example 17, N-(4-Chloro-3-(trifluoromethyl)benzyl)-2-methyl-1,8-naphthyridine-3-carboxamide]	67%	8%	–	–	–
Cc1nc2ncccc2cc1C(=O)NCc1ccc(-c2ccccc2)cc1 [Example 19, N-(Biphenyl-4-ylmethyl)-2-methyl-1,8-naphthyridine-3-carboxamide]	41%	17%	–	–	–
Cc1nc2ncccc2cc1C(=O)NCc1ccc(N2CCN(C)CC2)c(C(F)(F)F)c1 [Example 62, 2-methyl-N-(4-(4-methylpiperazin-1-yl)-3-(trifluoromethyl)benzyl)-1,8-naphthyridine-3-carboxamide]	–	–	92%	63%	17%
Cc1nc2ncccc2cc1C(=O)OCc1csc(-c2ccccc2)n1 [Example 101, (2-Phenylthiazol-4-yl)methyl 2-methyl-1,8-naphthyridine-3-carboxylate]	–	–	72%	63%	27%
Cc1ccc2cc(C(=O)NCc3ccc(C(C)(C)C)cc3)c(C)nc2n1 [Example 109, N-(4-tert-butylbenzyl)-2,7-dimethyl-1,8-naphthyridine-3-carboxamide]	–	–	73%	25%	1%

From patent publication US8415333B2, “Bronchodilating diazaheteroaryls” (Respiratorious AB, priority 2009, dated 2013)
